Test results from US5118681A (priority 1989, dated 1992).
Values after ≈ are worked out from the molar mass of the structure shown.

Legend:
A.n = assay: Minimum Inhibitory Concentration Test, alternate (Table 4), A.n; format: cell-based, Aspergillus niger; conditions: Aspergillus niger, TSB, 72 hours
Summary of the method: (§1)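 Compound in acetone was diluted into TSB and serially diluted 1:1 from 250 ppm down to 0.8 ppm, in duplicate. Plates were inoculated with diluted 24 h culture and incubated 3 days at 30° C; MIC recorded as lowest concentration with no growth.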

[1] = tested on: Erysiphe graminis (f. sp. tritici); assay: whole plant or invertebrate; format: in vivo; conditions: Blumeria graminis; read-out: % control WPM
E.c = assay: Minimum Inhibitory Concentration Test, alternate (Table 4), E.c; format: cell-based, Escherichia coli; conditions: Escherichia coli, TSB, 72 hours
Experimental: (§2) A 125 μl aliquot of 10,000 ppm test compound in acetone was added to 4.88 ml of TSB to provide a 250 ppm solution. From this solution, 100 μL was transferred to the first row of two microtiter plate columns. Both replicates and five additional compounds were all serially diluted 1:1 to a final concentration of 0.8 ppm in TSB.
(§3) Inoculation was accomplished by diluting a 24 hr Ps fl culture, four mls per 36 mls of phosphate buffer solution. A Dynatech autoinoculator was used to transfer 1.5 μl of this cell suspension to the microtiter plates. The plates were incubated at 30° C. for 3 days before the lowest concentration at which no growth occurs was recorded in the database. The SOK data and MIC test data on Ps.fl, Ps.ae, E.c, and S.a. bacteria and Candida albicans (C.alb), A.n and A.p fungi are listed in Table 4.

Phytophthora infestans = assay: whole plant or invertebrate; format: in vivo; conditions: Phytophthora infestans, in Solanum lycopersicum, 96 h, read-out: % control TLB
A.p = assay: Minimum Inhibitory Concentration Test, alternate (Table 4), A.p; format: cell-based; conditions: Aureobasidium pullulans, TSB, 72 hours
Experimental: as §2, §3

[2] = tested on: Pseudoperonospora cubensis; assay: whole plant or invertebrate; format: in vivo; conditions: Pseudoperonospora cubensis, in Cucumis sativus, 168 h; read-out: % control CDM
[3] = tested on: Puccinia graminis (f. sp. tritici Race 15B-2); assay: whole plant or invertebrate; format: in vivo; conditions: 336 h, read-out: % control WSR
S.a = assay: Minimum Inhibitory Concentration Test, alternate (Table 4), S.a; format: cell-based, Staphylococcus aureus; conditions: Staphylococcus aureus, TSB, 72 hours
Experimental: as §2, §3

Candida albicans (C.alb) = assay: Minimum Inhibitory Concentration Test, alternate (Table 4), C.alb; format: cell-based; conditions: Candida albicans, TSB, 72 hours
Experimental: as §2, §3

Ps.ae = assay: Minimum Inhibitory Concentration Test, alternate (Table 4), Ps.ae; format: cell-based, Pseudomonas aerugenosa; conditions: Pseudomonas, TSB, 72 hours
Piricularia oryzae = assay: whole plant or invertebrate; format: in vivo; conditions: Pyricularia oryzae, read-out: % control RB
Pseudomonas fluorescens = assay: Minimum Inhibitory Concentration Test, alternate (Table 4), Ps.fl; format: cell-based; conditions: Pseudomonas fluorescens, TSB, 72 hours, 30° C
Summary of the method: as §1

[4] = tested on: Pellicularia filamentosa (f. sp. sasiki); assay: whole plant or invertebrate; format: in vivo; conditions: 120 h; read-out: % control RSB
[5] = tested on: Puccinia recondita (f. sp. tritici Races PKB and PLD); assay: whole plant or invertebrate; format: in vivo; conditions: Puccinia recondita, 240 h; read-out: % control WLR

| Structure (SMILES) | MIC (A.n) [mg/L] | pest or weed control at 100 ppm [1] [%] | MIC (E.c) [mg/L] | pest or weed control at 100 ppm (Phytophthora infestans) [%] | MIC (A.p) [mg/L] | pest or weed control at 300 ppm [3] [%] | MIC (S.a) [mg/L] | MIC (Candida albicans (C.alb)) [mg/L] | MIC (Ps.ae) [mg/L] | MIC (Pseudomonas fluorescens) [mg/L] | pest or weed control at 300 ppm [4] [%] | pest or weed control at 200 ppm (Phytophthora infestans) [%] | pest or weed control at 200 ppm [2] [%] | pest or weed control at 200 ppm (Piricularia oryzae) [%] | pest or weed control at 100 ppm [5] [%] | pest or weed control at 100 ppm [3] [%] | pest or weed control at 100 ppm (Piricularia oryzae) [%] | pest or weed control at 100 ppm [4] [%] | further results |
| --- | --- | --- | --- | --- | --- | --- | --- | --- | --- | --- | --- | --- | --- | --- | --- | --- | --- | --- | --- |
| CCCCCNC(=O)/C=C\SC(C(C)=O)C(C)=O [Example 3, N-n-pentyl-cis-3-[3-(2,4-pentanedionyl)thio]acrylamide] | 31 to 63 (≈ 114 to 232 µM) | 0 | 125 to 250 (≈ 461 to 921 µM) | 40 | 8 (≈ 29.5 µM) | 60 | 125 (≈ 461 µM) | 31 (≈ 114 µM) | > 500 | > 500 | 0 |  |  |  |  |  |  |  | pest or weed control at 300 ppm [2]: 98%; pest or weed control at 300 ppm (Piricularia oryzae): 0% |
| CCCCCCCNC(=O)/C=C\SC(C(C)=O)C(C)=O [Example 4, N-n-heptyl-cis-3-[3-(2,4-pentanedionyl)thio]acrylamide] | 16 to 63 (≈ 53.4 to 210 µM) | 0 | > 500 |  | < 4 | 80 | 63 (≈ 210 µM) | < 4 | > 500 | > 500 | 0 | 100 | 98 | 60 |  |  |  |  |  |
| CCCCCCNC(=O)/C=C\SC(C(C)=O)C(C)=O [Example 5, N-n-hexyl-cis-3-[3-(2,4-pentanedionyl)thio]acrylamide] | 31 to 63 (≈ 109 to 221 µM) |  | > 500 |  | < 4 | 70 | 63 to 125 (≈ 221 to 438 µM) | 16 (≈ 56.1 µM) | > 500 | > 500 | 0 | 95 | 100 | 90 |  |  |  |  | pest or weed control at 300 ppm [1]: 0% |
| CCCCCCNC(=O)/C(Cl)=C(/Cl)SC(C(C)=O)C(C)=O [Example 7, N-n-hexyl-2,3-dichloro-cis-3-[3-(2,4-pentanedionyl)thio]acrylamide] | 8 to 63 (≈ 22.6 to 178 µM) |  | 125 (≈ 353 µM) |  | 8 (≈ 22.6 µM) | 60 | 125 (≈ 353 µM) | 31 (≈ 87.5 µM) | 500 (≈ 1410 µM) | 250 to 500 (≈ 706 to 1410 µM) | 0 |  |  |  |  |  |  |  | pest or weed control at 300 ppm [1]: 0%; pest or weed control at 300 ppm (Phytophthora infestans): 20%; pest or weed control at 300 ppm [2]: 95% |
| CCCCCCCCNC(=O)/C=C\SC(C(=O)CC)C(=O)CC [Example 8, N-n-octyl-cis-3-[4-(3,5-heptanedionyl)thio]acrylamide] | > 500 |  |  |  |  |  |  |  |  | > 500 |  | 92 | 95 | 95 |  |  |  |  | pest or weed control at 200 ppm [1]: 0%; pest or weed control at 200 ppm [3]: 60%; pest or weed control at 200 ppm [4]: 0% |
| CCCCCCCCNC(=O)/C=C\SC1C(=O)CC(C)(C)CC1=O [Example 9, N-n-octyl-cis-3-[2-(5,5-dimethyl-1,3-cyclohexanedionyl)thio]acrylamide] | > 500 |  |  |  |  |  |  |  |  | > 500 |  | 70 | 99 | 50 |  |  |  |  | pest or weed control at 200 ppm [1]: 0%; pest or weed control at 200 ppm [3]: 60%; pest or weed control at 200 ppm [4]: 0% |
| CCCCCCCCNC(=O)/C=C\SC(C(C)=O)C(=O)CC (stereo not drawn) [Example 10, N-n-octyl-cis-3-[3-(2,4-hexanedionyl)thio]acrylamide] | > 500 |  |  |  |  |  |  |  |  | > 500 |  | 98 | 100 | 95 |  |  |  |  | pest or weed control at 200 ppm [1]: 30%; pest or weed control at 200 ppm [3]: 80%; pest or weed control at 200 ppm [4]: 0% |
| CCCCCCCCNC(=O)/C=C\SC(C(=O)Nc1ccccc1OC)C(=O)OCC (stereo not drawn) [Example 53, N-n-octyl-cis-3-{2-[ethyl-N-(2-methoxyphenyl)malonamido]thio}acrylamide] | 500 (≈ 1110 µM) | 0 |  | 97 |  |  |  |  |  | > 500 |  |  |  |  | 0 | 0 | 90 | 0 | pest or weed control at 100 ppm [2]: 100% |
| CCCCCCCCNC(=O)/C=C\SC(C(=O)Nc1cccc(C)c1)C(=O)OCC (stereo not drawn) [Example 54, N-n-octyl-cis-3-{2-[ethyl-N-(3-methylphenyl)malonamido]thio}acrylamide] | > 500 | 0 |  | 80 |  |  |  |  |  | > 500 |  |  |  |  | 0 | 0 | 87 | 0 | pest or weed control at 100 ppm [2]: 97% |
| CCCCCCCCNC(=O)/C=C\SC(C(=O)NCCc1ccccn1)C(=O)OCC (stereo not drawn) [Example 66, N-n-octyl-cis-3-{2-[ethyl-N-(2-(2-pyridyl)ethyl)malonamido]thio}acrylamide] | < 2 | 0 | > 250 | 40 | < 2 |  | 63 (≈ 140 µM) | < 2 | > 250 | > 250 |  |  |  |  | 0 |  | 0 | 0 | pest or weed control at 100 ppm [2]: 100% |
| CCCCCCCCNC(=O)/C=C\SC(C(=O)c1ccccc1)C(=O)c1ccccc1 [Example 67, N-n-octyl-cis-3-[2-(1,3-diphenyl-1,3-propanedionyl)thio]acrylamide] |  | 0 |  | 0 |  |  |  |  |  |  |  |  |  |  | 0 | 0 | 90 | 0 |  |
| CCCCCCCCNC(=O)/C=C\SC(C(=O)c1ccccc1)C(=O)c1cccn1C (stereo not drawn) [Example 68, N-n-octyl-cis-3-{2-[1-phenyl-3-(1-methylpyrroyl-2-yl)-1,3-propanedionyl]thio}acrylamide] |  | 0 |  | 60 |  |  |  |  |  | > 250 |  |  |  |  | 0 | 0 | 80 | 0 |  |
